Source: US20230192705A1, “SHP2 INHIBITORS, COMPOSITIONS AND USES THEREOF” (Betta Pharmaceuticals Co., Ltd, priority 2020, published 2023)

Tests used:
[1] = In vitro metabolic stability in human liver microsome; format: in vitro ADME; settings: human liver microsomes
Description: 1900 mg MgCl2 was dissolved into a final volume of 400 mL ultra-pure water.
17.42 g K2HPO4 and 13.65 g KH2PO4 were dissolved into a final volume of 1000 mL ultra-pure water, respectively. K2HPO4 and KH2PO4 were mixed to prepare 100 mM potassium phosphate (PBS) buffer. The pH value of the final solution was adjusted to pH 7.30±0.10.
Cold ACN (including 10 ng/mL Labetalol and 10 ng/mL Glibenclamid) was stored at 4° C.
Working Solution Preparation:
Verapamil (positive control) and test compound stock solution were diluted into a concentration of 50 μM and 200 μM respectively, using MeOH/ACN/H2O solution (1:1:2, v/v/v).
1) 40 μL MgCl2 and 306 μL PBS were added to 96 plate wells (blank, compound wells, compounds without NADPH wells)
2) 4 μL compound working solution was added to above wells (blank: 4 μL PBS buffer) (Note: the volume of DMSO in final incubation system ≤0.5%)
3) 10 μL microsomes (20 mg/mL) was added in each well. The mixture was warmed up for 10 minutes at 37.0° C.
4) 40 μL 10 mM NADPH working solution was added to start reaction. The total volume was 400 μL.
5) Aliquots of 50 μL samples were taken from the reaction solution at 0, 5, 15, 45 min. The reaction solutions were stopped by the addition of 400 μL stop solution.
6) The sampling plates were shaked for approx. 5 min.
7) Samples were centrifuged at 3200 rcf for 10 min. then transferred 50 μL to a new plate dilute with 200 μL H2O for LC/MS/MS analysis.
Use equation of first order kinetics to calculate t1/2 and CL: […]
Where k represents elimination constant, which is calculated from a log linear plot of % Remaining versus time. t1/2 represents the half-life. Cprotein is the concentration of liver microsomes.

hERG channel = target: T1, hERG channel (Homo sapiens, UniProt Q12809); assay: Patch clamp assay to test the effect of compound on hERG channel; format: cell-based; settings: manual patch clamp, HEK 293 cells expressed with hERG, concentration for half maximum effect
T1 construct: expressed in transfected cells; host or cells: HEK-293
Summary of the method: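 Whole-cell patch clamp on hERG-expressing HEK-293 cells at 22-23 °C, perfused with 4-6 escalating concentrations (0.3-30 μM final) after a 2 min vehicle period. Tail currents elicited by 2 s depolarizing steps from −80 mV, measured at a −50 mV repolarization; fraction of control current fitted by Hill equation for half-maximal concentration.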

T1 sequence (Q12809 whole entry): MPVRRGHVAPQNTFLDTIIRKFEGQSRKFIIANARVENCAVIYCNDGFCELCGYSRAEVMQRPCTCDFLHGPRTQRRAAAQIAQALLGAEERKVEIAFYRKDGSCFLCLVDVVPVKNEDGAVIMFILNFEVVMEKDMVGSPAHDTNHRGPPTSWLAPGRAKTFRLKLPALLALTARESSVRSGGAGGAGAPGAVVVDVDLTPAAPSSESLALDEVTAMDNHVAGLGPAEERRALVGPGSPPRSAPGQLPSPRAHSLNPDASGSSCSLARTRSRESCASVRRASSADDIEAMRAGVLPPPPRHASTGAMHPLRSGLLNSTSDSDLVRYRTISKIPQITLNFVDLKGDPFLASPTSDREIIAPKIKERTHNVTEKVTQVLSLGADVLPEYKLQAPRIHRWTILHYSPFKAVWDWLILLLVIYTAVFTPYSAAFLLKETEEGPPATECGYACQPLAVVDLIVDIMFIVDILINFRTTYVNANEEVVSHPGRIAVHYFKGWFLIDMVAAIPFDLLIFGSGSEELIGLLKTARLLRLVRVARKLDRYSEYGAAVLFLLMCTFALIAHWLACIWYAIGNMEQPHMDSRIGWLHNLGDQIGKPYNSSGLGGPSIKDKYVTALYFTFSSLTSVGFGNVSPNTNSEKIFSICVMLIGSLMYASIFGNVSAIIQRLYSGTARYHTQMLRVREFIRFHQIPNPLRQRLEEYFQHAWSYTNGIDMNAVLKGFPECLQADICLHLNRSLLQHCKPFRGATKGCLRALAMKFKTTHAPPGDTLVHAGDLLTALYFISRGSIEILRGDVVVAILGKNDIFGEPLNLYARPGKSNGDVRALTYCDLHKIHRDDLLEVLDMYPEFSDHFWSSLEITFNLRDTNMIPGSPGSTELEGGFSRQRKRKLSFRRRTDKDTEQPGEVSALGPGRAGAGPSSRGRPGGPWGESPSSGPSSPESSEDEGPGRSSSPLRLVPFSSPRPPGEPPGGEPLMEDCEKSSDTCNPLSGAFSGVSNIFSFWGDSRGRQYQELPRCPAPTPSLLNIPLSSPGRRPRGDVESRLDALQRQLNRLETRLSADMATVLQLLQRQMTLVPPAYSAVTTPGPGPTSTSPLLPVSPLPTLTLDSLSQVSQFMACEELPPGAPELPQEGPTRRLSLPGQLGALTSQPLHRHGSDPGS

Row | Structure (SMILES) | CLint Human [1] | IC50 (hERG channel)
1 | Cn1c(N2CCC3(CC2)Cc2ccccc2[C@H]3N)nc2[nH]nc(C3(c4ccccc4)CC3)c2c1=O [Example 1] | 95.2 μL/min/mg proteins | 1.76 µM
2 | N[C@@H]1c2ccccc2CC12CCN(c1nc3[nH]nc(C4(c5ccc(O)cc5)CC4)c3c(=O)[nH]1)CC2 [Example 234, (S)-6-(1-amino-1,3-dihydrospiro[indene-2,4′-piperidin]-1′-yl)-3-(1-(4-hydroxyphenyl)cyclopropyl)-1,5-dihydro-4H-pyrazolo[3,4-d]pyrimidin-4-one] | 10.4 μL/min/mg proteins | > 30 µM
3 | N[C@@H]1c2ccccc2CC12CCN(c1nc3[nH]nc(C4(c5cccc(F)c5)CC4)c3c(=O)[nH]1)CC2 [Example 6, (S)-6-(1-amino-1,3-dihydrospiro[indene-2,4′-piperidin]-1′-yl)-3-(1-(3-fluorophenyl)cyclopropyl)-1,5-dihydro-4H-pyrazolo[3,4-d]pyrimidin-4-one] | 19.5 μL/min/mg proteins | –
4 | N[C@@H]1c2ccccc2CC12CCN(c1nc3[nH]nc(C4(c5ccc6c(c5)OC(F)(F)O6)CC4)c3c(=O)[nH]1)CC2 [Example 13, (S)-6-(1-amino-1,3-dihydrospiro[indene-2,4′-piperidin]-1′-yl)-3-(1-(2,2-difluorobenzo[d][1,3]dioxol-5-yl)cyclopropyl)-1,5-dihydro-4H-pyrazolo[3,4-d]pyrimidin-4-one] | 9.8 μL/min/mg proteins | –
5 | N[C@@H]1c2ccccc2CC12CCN(c1nc3[nH]nc(C4(c5csnn5)CC4)c3c(=O)[nH]1)CC2 [Example 240, (S)-3-(1-(1,2,3-thiadiazol-4-yl)cyclopropyl)-6-(1-amino-1,3-dihydrospiro[indene-2,4′-piperidin]-1′-yl)-1,5-dihydro-4H-pyrazolo[3,4-d]pyrimidin-4-one] | 11.8 μL/min/mg proteins | 17.1 µM
6 | N[C@@H]1c2ccccc2CC12CCN(c1nc3[nH]nc(C4(c5ccc(Cl)c(Cl)c5)CC4)c3c(=O)[nH]1)CC2 [Example 21, (S)-6-(1-amino-1,3-dihydrospiro[indene-2,4′-piperidin]-1′-yl)-3-(1-(3,4-dichlorophenyl)cyclopropyl)-1,5-dihydro-4H-pyrazolo[3,4-d]pyrimidin-4-one] | 10.4 μL/min/mg proteins | –
7 | N[C@@H]1c2ccccc2CC12CCN(c1nc3[nH]nc(C4(c5ccc6c(c5)OCO6)CC4)c3c(=O)[nH]1)CC2 [Example 34, (S)-6-(1-amino-1,3-dihydrospiro[indene-2,4′-piperidin]-1′-yl)-3-(1-(benzo[d][1,3]dioxol-5-yl)cyclopropyl)-1,5-dihydro-4H-pyrazolo[3,4-d]pyrimidin-4-one] | 16.5 μL/min/mg proteins | 6.9 µM
8 | N[C@@H]1c2ccccc2CC12CCN(c1nc3[nH]nc(C4(c5cccs5)CC4)c3c(=O)[nH]1)CC2 [Example 24, (S)-6-(1-amino-1,3-dihydrospiro[indene-2,4′-piperidin]-1′-yl)-3-(1-(thiophen-2-yl)cyclopropyl)-1,5-dihydro-4H-pyrazolo[3,4-d]pyrimidin-4-one] | – | 14.8 µM
9 | N[C@@H]1c2ccccc2CC12CCN(c1nc3[nH]nc(C4(c5ccccc5)CC4(F)F)c3c(=O)[nH]1)CC2 (stereo partly drawn) [Example 9, 6-((S)-1-amino-1,3-dihydrospiro[indene-2,4′-piperidin]-1′-yl)-3-(2,2-difluoro-1-phenylcyclopropyl)-1,5-dihydro-4H-pyrazolo[3,4-d]pyrimidin-4-one] | 16.9 μL/min/mg proteins | 10.4 µM
10 | N[C@@H]1c2ccccc2CC12CCN(c1nc3[nH]nc(C4(c5ccccc5)COC4)c3c(=O)[nH]1)CC2 [Example 96, (S)-6-(1-amino-1,3-dihydrospiro[indene-2,4′-piperidin]-1′-yl)-3-(3-phenyloxetan-3-yl)-1,5-dihydro-4H-pyrazolo[3,4-d]pyrimidin-4-one] | – | > 30 µM
11 | N[C@@H]1c2ccccc2CC12CCN(c1nc3[nH]nc(C4(c5ccc(F)cc5)CC4)c3c(=O)[nH]1)CC2 [Example 11, (S)-6-(1-amino-1,3-dihydrospiro[indene-2,4′-piperidin]-1′-yl)-3-(1-(4-fluorophenyl)cyclopropyl)-1,5-dihydro-4H-pyrazolo[3,4-d]pyrimidin-4-one] | 8.6 μL/min/mg proteins | –
12 | N#Cc1ccc(C2(c3n[nH]c4nc(N5CCC6(CC5)Cc5ccccc5[C@H]6N)[nH]c(=O)c34)CC2)cc1 [Example 237, (S)-4-(1-(6-(1-amino-1,3-dihydrospiro[indene-2,4′-piperidin]-1′-yl)-4-oxo-4,5-dihydro-1H-pyrazolo[3,4-d]pyrimidin-3-yl)cyclopropyl)benzonitrile] | – | 7.9 µM
13 | Nc1ccc(C2(c3n[nH]c4nc(N5CCC6(CC5)Cc5ccccc5[C@H]6N)[nH]c(=O)c34)CC2)cc1 [Example 230, (S)-6-(1-amino-1,3-dihydrospiro[indene-2,4′-piperidin]-1′-yl)-3-(1-(4-aminophenyl)cyclopropyl)-1,5-dihydro-4H-pyrazolo[3,4-d]pyrimidin-4-one] | 9.2 μL/min/mg proteins | > 30 µM
14 | N[C@@H]1c2ccccc2CC12CCN(c1nc3[nH]nc(C4(c5ccccc5)CC4)c3c(=O)[nH]1)CC2 [Example 33] | 10.6 μL/min/mg proteins | 9.5 µM
15 | N[C@@H]1c2ccccc2CC12CCN(c1nc3[nH]nc(C4(c5cccc(C(F)(F)F)c5)CC4)c3c(=O)[nH]1)CC2 [Example 8, (S)-6-(1-amino-1,3-dihydrospiro[indene-2,4′-piperidin]-1′-yl)-3-(1-(3-(trifluoromethyl)plienyl)cyclo-propyl)-1,5-dihydro-4H-pyrazolo[3,4-d]pyrimidin-4-one] | 9.2 μL/min/mg proteins | –
16 | N[C@@H]1c2ccccc2CC12CCN(c1nc3[nH]nc(C4(c5ccc(C(F)(F)F)cc5)CC4)c3c(=O)[nH]1)CC2 [Example 228, (S)-6-(1-amino-1,3-dihydrospiro[indene-2,4′-piperidin]-1′-yl)-3-(1-(4-(trifluoromethyl)phenyl)cyclo-propyl)-1,5-dihydro-4H-pyrazolo[3,4-d]pyrimidin-4-one] | 6.2 μL/min/mg proteins | –
